Results from patent US9096643B2, “Cell-protective peptides and uses thereof” (priority 2010, dated 2015).
No end group written: not given here.

Experiments:
[1] = test system: neonatal rat CMs (heart cells); assay: Heart cell attachment on peptide-modified Az-chitosan coated coverslips (brightfield cell counts); type: cell-based, rat (Sprague-Dawley); conditions: coated glass coverslips, 1, 3 and 5 days of incubation, FIG. 1
Protocol: Neonatal (1 to 2 day-old) Sprague-Dawley rats were euthanized according to the procedure approved by the University of Toronto Committee on Animal Care. […] The supernatant from 5 collagenase digests of the tissues was collected and centrifuged at 750 rpm (94 g) for 4 min, resuspended in culture medium and pre-plated into T75 flasks (Falcon) for 1 hour to separate the non-adherent cells (enriched CMs) from the adherent cells (non-myocytes). The enriched CMs were used in the studies. The CM culture medium consisted of Dulbecco's Modified Eagle Medium (DMEM) with 4.5 g/L glucose, 4 mM L-glutamine, 10% certified fetal bovine serum (FBS), 100 U/mL penicillin, 100 μg/mL streptomycin, and 10 mM 4-2-hydroxyethyl-1-piperazineethanesulfonic acid buffer (HEPES, Gibco/Invitrogen).
The surfaces used for microscopy analysis were created on circular 12 mm diameter glass coverslips (VWR). These were plasma treated (WS-400BZ-6NPP/Lite, Laurell Technologies) for 30 s. […]
The day before cells were ready to be seeded, the surfaces in the 12-well plates were sterilized by germicidal UV illumination overnight. […]
Brightfield images were taken with 10× magnification of surfaces with cells (N=3) to visualize the morphology and cell attachment (IX81, Olympus). […] The number of cells was then counted using the cell counting plug-in on ImageJ (NIH version 1.36b).

[2] = test system: neonatal rat CMs (heart cells); assay: Preliminary 3D cell encapsulation studies in hydrogels; type: cell-based, rat (Sprague-Dawley); conditions: encapsulated, 1 to 4 days of 3D culture
Protocol: The lyophilized form of the peptide-modified Az-chitosan was dissolved in sterile 0.9% saline at 12 mg/mL. CMs (2.5×10^6) were suspended in 15 μL of CM culture media with 30% serum for 15 minutes on ice. These cells were then suspended in 35 μL of the hydrogel and crosslinked in the transwell inserts of the 96 well plates. The cells were cultivated in the CM culture medium with 10% FBS for up to 4 days.

[3] = test system: Rat neonatal cardiomyocytes; assay: ATP assay (CellTiter-Glo) in serum-starved cardiomyocytes; type: cell-based; conditions: 1 d
Protocol: Rat neonatal cardiomyocytes were incubated with PBS (control), 500 μM QHREDGS, scrambled QHREDGS peptide, GRGDSP peptide or 400 nM ang 1 or ang2 in DMEM/0.5% BSA/cytosine-β-D-arabinofuranoside (37° C., 5% CO2, 1 d). ATP levels were quantified using the CellTiter-Glo Luminescent Assay (Promega) as per manufacturer's instructions (N=6/group). Luminescence was measured using a Wallac 1420 microplate reader.

human iPS cells 0901B = assay: iPS colony formation / cloning efficiency after complete dissociation at clonal density; type: cell-based; conditions: 50 μM, trypsinized, clonal density, one week, FIG. 13B
Protocol: (§1) The human iPS cells (BJ1D and 0901B) were obtained from the Ontario iPSC Facility and used following the hiPS cell research guidelines of the University of Toronto as described by Hotta et al. Nat. Protoc. 4, 1828-1844 (2009)), unless specified otherwise. Cells were cultured on a feeder layer of MEF cells (Mount Sinai Hospital Toronto, inactivated with 10 μg/ml mitomycin C and seeded at 1.8×10^5 per 3.5 cm dish). For single cell cultures, hiPS cell colonies were dissociated in 0.25% Trypsin-EDTA (Invitrogen) for 5 min, followed by trituration with a pipette. To ensure a single-cell suspension, the dissociated cells were passed through a 40 μm cell strainer (BD Falcon) and seeded onto MEF plates at 10 cells/ml, 10 cm plates. Cells were allowed to grow for 7 days and the total number of colonies was counted. In the treated groups, QHREDGS (Biomatik) or DGQESHR (Biomatik) dissolved in PBS (Lonza), were added at the reported concentrations to culture media at the onset of the first treatment passage and replenished with each media change. Media was changed by 100% every day. Peptides and controls were included during dissociation and passaging. Cells were analyzed after 5 passages in continuous treatment with 50 μM QHREDGS, 50 μM DGQESHR, or PBS, unless specified otherwise.
(§2) iPS cells, BJ1D or 0901B were treated with 50 μM of QHREDGS peptide, or 50 μM DGQESHR scrambled peptide in PBS with a PBS treated control for five passages as a preparation for passage by trypsin. Cells were trypsinized and plated at a clonal density of 10 cells/ml for one week and the number of colonies were counted.
(§3) After 5 passages in pre-treatment with 50 μM QHREDGS, or controls and complete dissociation (trypsinized), human iPS cells, BJ1D or 0901B cells, were plated on a mouse embryonic fibroblast (MEF) feeder layer at low density (100 cells/plate, 10 cm plate) in maintenance medium containing 50 μM QHREDGS, PBS, or 50 μM DGQESHR scrambled peptide. After one-week in culture, untreated or DGQESHR (scrambled peptide) treated groups generated few colonies, whereas QHREDGS treated groups for both BJ1D or 0901B cells produced many large colonies (˜15 times more than the controls) (see FIG. 13A/B, respectively). The colonies were positive for Oct4, a marker for the undifferentiated state. The cloning efficiency, based on ratio of Oct4+ colonies formed per initially seeded human iPS cells, was 27+/−7.1% and 2.5+/−0.6% for BJ1D and 48+/−9.4% and 22.3+/−1.9 for 0901B in the presence and absence of QHREDGS, respectively. […] Thus, treatment with QHREDGS supports single-cell culture of human iPS cells through the promotion of colony formation.

human iPS cells BJ1D = assay: as above; type: cell-based; conditions: 50 μM, trypsinized, clonal density, one week, FIG. 13A
Protocol: as §1, §2, §3

[4] = test system: neonatal rat cardiomyocytes; assay: Cardiomyocyte encapsulation in chitosan hydrogels, live/dead staining after 6 days; type: cell-based; conditions: peptide conjugated to Az-chitosan hydrogel, in vitro cultivation
Protocol: The lyophilized form of the peptide-modified Az-chitosan (Az-chitosan-QHREDGS or Az-chitosan-RGDS) was dissolved in sterile 0.9% PBS at 12 mg/mL. Cardiomyocytes (2.5×10^6) were suspended in 15 μL 30% FBS-containing culture medium for 15 min. on ice. These cells were further suspended in 35 μL of the hydrogel. This mixture was placed on a 12 mm diameter glass coverslip, which was placed on a UV lamp (UVP, 365 nm, 1 mW/cm^2 at 3″ distance, 115 V, 60 Hz, 0.16 Amp) and exposed to UV light for 5 min. The samples were then transferred to a 12 well plate and supplemented with 2 mL of warm cardiomyocyte culture media.
Live/dead staining was performed using 5-carboxyfluorescein diacetate acetoxymethly ester, which stains live cells green, and propidium iodide, which stains dead cells red according to the manufacturer's instruction (Invitrogen). Three sets of surfaces were analyzed for each sample type.

[5] = test system: Rat neonatal cardiomyocytes; assay: Hydrogen peroxide treatment, Trypan blue viability (monolayer); type: cell-based; conditions: 200 nM ang 1 1.5 hr, 100 μM H2O2 10 min, FIG. 5A
Protocol: Rat neonatal cardiomyocytes were incubated for 1.5 hr with 500 μM QHREDGS, scrambled (scram) QHREDGS peptide (DGQESHR), or PBS control (PBS); 200 nM ang 1 or its matched buffer control [0.1% bovine serum albumin (BSA) in PBS] in the culture medium. The culture medium consisted of Dulbecco's Modified Eagle's Medium (DMEM) with 0.5% BSA and cytosine-β-D-arabinofuranoside (anti-proliferative). Reactive oxygen species were increased by addition of 100 μM H2O2 for 10 min (37° C., 5% CO2) (N=6/group). Cell viability was measured using a Trypan blue stain. Trypan blue dye is impermeable to viable cells, but enters dead/damaged cells with impaired membrane integrity, staining cells blue.

Az-chitosan-DGQESHR: scrambled QHREDGS peptide conjugated to Az-chitosan (also: conjugated to Az-chitosan, site not given here) [reference compound]
cell adhesion / cell attachment to coated surface [1]: did not have the same attachment results
heart cell survival and elongation in 3D hydrogel [2]: a large number of dead round cells

DGQESHR [scrambled QHREDGS peptide control, reference compound]
cardiac myocyte ATP levels ([3]; 500 μM peptide): no such effect
number of colonies (human iPS cells 0901B): few colonies
number of colonies (human iPS cells BJ1D): few colonies

GRGDSP [RGD-based peptides, reference compound]
cardiac myocyte ATP levels ([3]; 500 μM peptide): no such effect

QHREDGS (angiopoietin 1 peptide)
syncytium formation of encapsulated cardiomyocytes [4]: formation of a dense syncytium

B1: Angiopoietin 1 (protein, UniProt Q15389 1-498, looked up)
chain: MTVFLSFAFLAAILTHIGCSNQRRSPENSGRRYNRIQHGQCAYTFILPEHDGNCRESTTDQYNTNALQRDAPHVEPDFSSQKLQHLEHVMENYTQWLQKLENYIVENMKSEMAQIQQNAVQNHTATMLEIGTSLLSQTAEQTRKLTDVETQVLNQTSRLEIQLLENSLSTYKLEKQLLQQTNEILKIHEKNSLLEHKILEMEGKHKEELDTLKEEKENLQGLVTRQTYIIQELEKQLNRATTNNSVLQKQQLELMDTVHNLVNLCTKEGVLLKGGKREEEKPFRDCADVYQAGFNKSGIYTIYINNMPEPKKVFCNMDVNGGGWTVIQHREDGSLDFQRGWKEYKMGFGNPSGEYWLGNEFIFAITSQRQYMLRIELMDWEGNRAYSQYDRFHIGNEKQNYRLYLKGHTGTAGKQSSLILHGADFSTKDADNDNCMCKCALMLTGGWWFDACGPSNLNGMFYTAGQNHGKLNGIKWHYFKGPSYSLRSTTMMIRPLDF
modifications: full-length
notes: full length parent protein of QHREDGS
cardiac myocyte ATP levels ([3]; 400 nM protein): substantially increased
cardiomyocyte viability after exposure to H2O2 [5]: maintain cardiomyocyte viability

B2: ang2: ang2 protein comparator in the ATP assay (protein, UniProt O15123 19-496, looked up)
Angiopoietin-2: YNNFRKSMDSIGKKQYQVQHGSCSYTFLLPEMDNCRSSSSPYVSNAVQRDAPLEYDDSVQRLQVLENIMENNTQWLMKLENYIQDNMKKEMVEIQQNAVQNQTAVMIEIGTNLLNQTAEQTRKLTDVEAQVLNQTTRLELQLLEHSLSTNKLEKQILDQTSEINKLQDKNSFLEKKVLAMEDKHIIQLQSIKEEKDQLQVLVSKQNSIIEELEKKIVTATVNNSVLQKQQHDLMETVNNLLTMMSTSNSAKDPTVAKEEQISFRDCAEVFKSGHTTNGIYTLTFPNSTEEIKAYCDMEAGGGGWTIIQRREDGSVDFQRTWKEYKVGFGNPSGEYWLGNEFVSQLTNQQRYVLKIHLKDWEGNEAYSLYEHFYLSSEELNYRIHLKGLTGTAGKISSISQPGNDFSTKDGDNDKCICKCSQMLTGGWWFDACGPSNLNGMYYPQRQNTNKFNGIKWYYWKGSGYSLKATTMMIRPADF
cardiac myocyte ATP levels ([3]; 400 nM protein): no such effect
